The source of these data is patent publication US8513228B2, “Crystalline form of antiprogestin CDB-4124” (Richter Gedeon Nyrt., priority 2009, dated 2013).

A short description of data set [1]: Water adsorption properties by dynamic vapour sorption (DVS). The format is physicochemical. The procedure:
From the examination of water adsorption properties important conclusions can be made about the physical and chemical stability of a compound. Amorphous compounds can adsorb more water from the air. This property is deliberately disadvantageous during the preparation process of a pharmaceutical composition, since the real amount of the active ingredient can't be measured because of the adsorbed water.
Water adsorption properties of the compounds were measured by dynamic vapour sorption technique (DVS). […]

Data set [2] in a line: Fast Stability Test (solid stored on a plate at 40° C. in air, impurity by HPLC). The format is physicochemical. As to conditions: for N-demethyl-derivative of CDB-4124: largest degradation product; for N-demethyl-derivative of CDB-4124 / Impurity: HPLC; for Impurity: stored on a plate at 40° C. in the presence of air. The procedure:
Amorphous and crystalline forms were stored on a plate at 40° C. in the presence of air for 10 days. Impurity was measured at different times using HPLC equipment. […]

Turning to `COCC(=O)[C@@]1(OC(C)=O)CC[C@H]2[C@@H]3CCC4=CC(=O)CCC4=C3[C@@H](c3ccc(N(C)C)cc3)C[C@@]21C` [Amorphous form, 17α-acetoxy-21-methoxy-11β-[4-N,N-dimethylaminophenyl]-19-norpregna-4,9-diene-3,20-dione, reference compound], the “water adsorbed (max.)” value in data set [1] (DVS, 25° C., 0%-90% relative humidity, as humidity was increased) was 2 m/m %.
For `COCC(=O)[C@@]1(OC(C)=O)CC[C@H]2[C@@H]3CCC4=CC(=O)CCC4=C3[C@@H](c3ccc(N(C)C)cc3)C[C@@]21C` [Form A, 17α-acetoxy-21-methoxy-11β-[4-N,N-dimethylaminophenyl]-19-norpregna-4,9-diene-3,20-dione], the “mass change as the degree of humidity was increased” value in data set [1] (DVS, 25° C., 0%-90% relative humidity) is “barely changed”. Besides, the “physical stability on change in relative humidity” value in data set [1] (room-temperature, independently of a change in relative humidity) was “stable anhydrate”. Besides, the “stability (purity examination)” value in data set [2] (40° C., air, 10 days, compared with amorphous form) is listed as “much better than that of the amorphous form”. Also, the “N-demethyl-derivative of CDB-4124” value turned out to be 0.18% in data set [2] (Day 0, 40° C., air); 0.18% in data set [2] (Day 1, 40° C., air); 0.18% in data set [2] (Day 2, 40° C., air); 0.23% in data set [2] (Day 10, 40° C., air). Further, the Impurity in data set [2] (Day 0) worked out at 0.33%; in data set [2] (Day 1) it was 0.33%; in data set [2] (Day 2), 0.35%; in data set [2] (Day 6) it was 0.43%; in data set [2] (Day 10) it was 0.48%.
